Measured values taken from patent US10421765B2, “Tetrahydropyrido[4,3-d]pyrimidine inhibitors of ATR kinase” (Board of Regents, The University of Texas System, priority 2017, dated 2019).
Read-outs that look alike come from different tables or passages of the source.

Experiments:
[1] = tested on: ATR-driven phosphorylation of Chk1 kinase at Serine 345 in HT-29 colorectal adenocarcinoma cells; assay: pCHK1 cellular assay (CHK1 p-Ser345 AlphaScreen SureFire); format: cell-based; details: Homo sapiens, HT-29, HT-29 cells, 4-nitroquinoline N-oxide 12 uM; read-out: Cell IC50 (pCHK1 IC50 values)
Description: Inhibitors of ATR kinase are effective at inhibiting the ATR-driven phosphorylation of the downstream target Chk1 kinase at Serine 345, following the addition of 4-nitroquinoline N-oxide, a chemical used to induce DNA damage. Cellular IC50 for the inhibitors of ATR described herein were measured in HT-29 colorectal adenocarcinoma cells. HT-29 cells were routinely maintained in McCoy's 5A media (ATCC Catalog #30-2007) supplemented with 10% fetal bovine serum (Sigma Catalog #F2442) and 1× Penicillin-Streptomycin (Gibco Catalog #15140-122) using a humidified incubator (37° C., 5% CO2, and ambient O2).
In preparation for the CHK1 (p-Ser345) ALPHASCREEN® SUREFIRE® assay, cells were harvested and resuspended in McCoy's 5A media supplemented with 10% fetal bovine serum and 1× Penicillin-Streptomycin. Cells were seeded onto a 384-well black CELLSTAR® Tissue Culture Plate (VWR Catalog #89085-314) at a density of 13,000 cells/well in a volume of 40 uL. The microplate was incubated overnight (approximately 20 hours) at 37° C. with 5% CO2 and ambient O2. Stock solutions of the test compounds were prepared in 100% DMSO (Sigma, Catalog #D2650) and serially diluted 1:3 using 100% DMSO. Compounds were additionally diluted 1:33 in culture medium, and 10 ul/well were transferred to the tissue culture plate. Following the compound addition the microplate was incubated at 37° C. for 90 minutes. 10 uL of 4-nitroquinoline N-oxide (Sigma Aldrich Catalog #N8141-1G) diluted in media (final concentration 12 uM) were added to the tissue culture plate followed by a 120 minute incubation at 37° C. The cells were then washed with PBS and lysed using 10 uL/well SUREFIRE® Kit lysis buffer diluted to 1× in water (PerkinElmer Catalog #TGRCHK1S50K), with mixing on an orbital shaker at 500 rpm for 20 min at RT. Lysates were frozen at −20° C. overnight.
4 uL/well of lysate was then transferred from the tissue culture plate to a 384-well, white, low volume, PROXIPLATE™ (PerkinElmer Catalog #600828). 5 uL/well of the acceptor bead solution, prepared by diluting SUREFIRE® Kit activation buffer (PerkinElmer Catalog #TGRCHK1S50K) and ALPHASCREEN® Protein A acceptor beads (PerkinElmer Catalog #6760617R) in SUREFIRE® Kit reaction buffer (PerkinElmer Catalog #TGRCHK1S50K), were added to the lysates under subdued light and incubated at room temperature for 120 min. 2 uL/well of the donor bead solution, prepared by diluting ALPHASCREEN® Streptavidin donor beads (PerkinElmer Catalog #6760617R) in SUREFIRE® Kit dilution buffer (PerkinElmer Catalog #TGRCHK1S50K), were added under subdued light and incubated at room temperature for an addition 120 minutes. The pCHK1 ALPHASCREEN® signal was measured using an ENVISION® plate reader (PerkinElmer). IC50 values were calculated using a four-parameter logistic curve fit using Genedata Screener software. Percent of control for each compound concentration was calculated by the following formula: 100*(Compound−Min)/(Max−Min) where “Max” is the high control, DMSO, and “Min” is the low control, 5 uM ATR inhibitor.

ATR/ATRIP complex = ATR/ATRIP complex (Homo sapiens (Human), UniProt Q13535); assay: ATR/ATRIP enzymatic assay (Caliper-based); format: biochemical; details: FAM-labeled RAD17 peptide, ATP
Description: Human full-length FLAG-TEV-ATR and His6-ATRIP were co-expressed in HEK293 cells. The cell pellet (20 g) was harvested and lysed in 100 mL of lysis buffer (20 mM Tris-HCl pH 7.5 at room temperature, 137 mM NaCl, 10% glycerol, 1 mM DTT, 1% (v/v) Tween-20, 0.1% (v/v) NP-40, complete protease inhibitor cocktail tablets, phosphatase inhibitor cocktail tablets, 2 mM MgCl2, 0.2 mM EDTA, and 1 mM ATP). After sonication and centrifugation, the supernatant was incubated at 4° C. for 3 hours with 1 mL of anti-FLAG resin (Sigma catalog #A2220) that had been pre-equilibrated in buffer A (20 mM Tris-HCl pH 7.5 at room temperature, 137 mM NaCl, 10% glycerol, 1 mM DTT, 2 mM MgCl2, and 0.2 mM EDTA). The sample was loaded into a column, and then washed with buffer A three times. Protein was subsequently eluted with 2 ml of buffer B (buffer A+200 μg/ml 3×FLAG peptide).
The ability of new chemical matter to inhibit the ATR catalytic activity in this ATR/ATRIP complex was assessed using a Caliper-based assay. A 2x enzyme solution (i.e., 4 nM enzyme) was prepared using 1× Kinase Reaction Buffer (25 mM HEPES pH 8, 0.0055% Brij-35, 10 mM MnCl2, and 1 mM DTT). A 2x peptide solution was then prepared consisting of 10 uM FAM-labeled RAD17 peptide (GL Biochem, catalog #524315) in 1× Kinase Reaction Buffer supplemented with 2 μM ATP. 10 μL of the 2× enzyme solution was transferred to an assay plate containing 60 nL of test compound (from a 3× serial dilution) in 100% DMSO. Following a 30 minute incubation at 28° C., 10 μL of the 2× peptide solution was then transferred to the same assay plate. The reaction was allowed to incubate at 28° C. for 6 hours. After adding […] of stop buffer (100 mM HEPES pH 7.5, 0.015% Brij-35, 0.2% Coating-3 Reagent (PerkinElmer, catalog #PN760050), and 50 mM EDTA), data were collected on a Caliper instrument. Conversion values were converted to inhibition values via the following equation: % inhibition=(max−conversion)/(max−min)*100, whereby “max” corresponds to the DMSO control and “min” corresponds to the low control. IC50 values were calculated using the following equation in XLFit: Y=Bottom+(Top−Bottom)/1+(IC50/X)^HillSlope).

[2] = read-out: ATR/ATRIP Enzyme IC50
[3] = estimated range, read-out: ATR/ATRIP Enzyme IC50 (estimated class)

Chain of ATR/ATRIP complex (Q13535 whole entry): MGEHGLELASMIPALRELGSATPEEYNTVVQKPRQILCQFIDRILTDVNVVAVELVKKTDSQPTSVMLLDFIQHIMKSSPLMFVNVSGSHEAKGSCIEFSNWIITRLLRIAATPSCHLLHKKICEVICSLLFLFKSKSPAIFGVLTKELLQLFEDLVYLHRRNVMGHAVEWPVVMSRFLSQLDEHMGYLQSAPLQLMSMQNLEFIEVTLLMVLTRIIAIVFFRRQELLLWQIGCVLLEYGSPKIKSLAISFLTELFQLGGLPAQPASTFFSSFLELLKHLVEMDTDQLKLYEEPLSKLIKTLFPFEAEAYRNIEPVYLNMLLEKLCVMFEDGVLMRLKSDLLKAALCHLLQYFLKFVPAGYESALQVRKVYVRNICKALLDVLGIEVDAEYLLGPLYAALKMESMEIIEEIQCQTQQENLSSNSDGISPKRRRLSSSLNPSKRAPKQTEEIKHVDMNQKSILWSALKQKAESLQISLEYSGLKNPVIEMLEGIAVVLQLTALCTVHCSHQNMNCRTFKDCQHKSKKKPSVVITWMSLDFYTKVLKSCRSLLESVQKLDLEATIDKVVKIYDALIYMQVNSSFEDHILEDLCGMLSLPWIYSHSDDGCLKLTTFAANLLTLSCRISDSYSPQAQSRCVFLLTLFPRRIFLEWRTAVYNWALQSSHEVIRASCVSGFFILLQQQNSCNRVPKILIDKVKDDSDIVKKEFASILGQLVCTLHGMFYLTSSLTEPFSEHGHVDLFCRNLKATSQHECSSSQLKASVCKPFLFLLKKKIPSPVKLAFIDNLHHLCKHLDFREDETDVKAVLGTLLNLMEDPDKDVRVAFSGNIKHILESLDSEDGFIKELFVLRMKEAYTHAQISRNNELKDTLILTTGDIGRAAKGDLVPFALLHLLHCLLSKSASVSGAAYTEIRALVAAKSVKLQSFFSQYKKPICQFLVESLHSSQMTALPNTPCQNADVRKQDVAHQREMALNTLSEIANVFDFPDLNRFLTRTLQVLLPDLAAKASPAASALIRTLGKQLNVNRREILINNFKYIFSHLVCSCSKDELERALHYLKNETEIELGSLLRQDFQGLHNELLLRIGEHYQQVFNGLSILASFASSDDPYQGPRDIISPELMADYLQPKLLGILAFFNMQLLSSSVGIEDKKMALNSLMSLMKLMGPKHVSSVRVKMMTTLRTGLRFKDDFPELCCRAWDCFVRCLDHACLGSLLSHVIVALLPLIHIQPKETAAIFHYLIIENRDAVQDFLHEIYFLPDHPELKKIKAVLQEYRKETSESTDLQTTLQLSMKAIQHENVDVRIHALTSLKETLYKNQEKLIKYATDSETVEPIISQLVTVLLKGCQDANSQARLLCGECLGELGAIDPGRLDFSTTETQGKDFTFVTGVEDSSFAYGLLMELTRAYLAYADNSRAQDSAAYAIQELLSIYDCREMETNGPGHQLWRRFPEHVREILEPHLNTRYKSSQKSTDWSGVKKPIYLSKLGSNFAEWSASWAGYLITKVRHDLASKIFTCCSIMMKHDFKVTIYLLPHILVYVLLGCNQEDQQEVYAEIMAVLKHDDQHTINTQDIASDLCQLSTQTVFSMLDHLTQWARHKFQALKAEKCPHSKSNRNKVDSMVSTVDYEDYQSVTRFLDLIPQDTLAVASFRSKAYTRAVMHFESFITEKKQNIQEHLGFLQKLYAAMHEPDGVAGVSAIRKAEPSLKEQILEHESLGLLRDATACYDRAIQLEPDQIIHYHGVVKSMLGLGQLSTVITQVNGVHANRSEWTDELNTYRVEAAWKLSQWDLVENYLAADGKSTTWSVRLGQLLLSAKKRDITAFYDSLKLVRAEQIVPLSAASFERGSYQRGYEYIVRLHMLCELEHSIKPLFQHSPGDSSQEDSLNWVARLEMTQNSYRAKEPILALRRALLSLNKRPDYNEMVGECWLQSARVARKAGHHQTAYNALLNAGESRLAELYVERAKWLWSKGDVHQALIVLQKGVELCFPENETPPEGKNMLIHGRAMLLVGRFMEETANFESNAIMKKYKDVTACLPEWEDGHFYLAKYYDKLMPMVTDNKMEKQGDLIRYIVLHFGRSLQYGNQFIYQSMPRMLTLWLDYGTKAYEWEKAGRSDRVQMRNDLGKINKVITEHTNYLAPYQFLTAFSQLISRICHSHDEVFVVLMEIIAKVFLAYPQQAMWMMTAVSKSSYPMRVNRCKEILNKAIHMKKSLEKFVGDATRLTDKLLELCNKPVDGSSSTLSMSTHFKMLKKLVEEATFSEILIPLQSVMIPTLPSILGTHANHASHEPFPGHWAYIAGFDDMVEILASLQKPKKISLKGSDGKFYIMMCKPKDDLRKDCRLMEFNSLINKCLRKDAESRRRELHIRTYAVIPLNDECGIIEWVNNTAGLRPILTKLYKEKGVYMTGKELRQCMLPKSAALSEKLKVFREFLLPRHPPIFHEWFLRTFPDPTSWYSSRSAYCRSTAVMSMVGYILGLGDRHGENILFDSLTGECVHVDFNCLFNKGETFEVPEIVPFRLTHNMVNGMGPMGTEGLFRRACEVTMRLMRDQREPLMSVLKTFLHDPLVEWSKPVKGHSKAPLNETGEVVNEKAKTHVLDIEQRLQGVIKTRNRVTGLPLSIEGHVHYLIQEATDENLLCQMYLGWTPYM
Chain of ATR/ATRIP complex (Q8WXE1 whole entry partner): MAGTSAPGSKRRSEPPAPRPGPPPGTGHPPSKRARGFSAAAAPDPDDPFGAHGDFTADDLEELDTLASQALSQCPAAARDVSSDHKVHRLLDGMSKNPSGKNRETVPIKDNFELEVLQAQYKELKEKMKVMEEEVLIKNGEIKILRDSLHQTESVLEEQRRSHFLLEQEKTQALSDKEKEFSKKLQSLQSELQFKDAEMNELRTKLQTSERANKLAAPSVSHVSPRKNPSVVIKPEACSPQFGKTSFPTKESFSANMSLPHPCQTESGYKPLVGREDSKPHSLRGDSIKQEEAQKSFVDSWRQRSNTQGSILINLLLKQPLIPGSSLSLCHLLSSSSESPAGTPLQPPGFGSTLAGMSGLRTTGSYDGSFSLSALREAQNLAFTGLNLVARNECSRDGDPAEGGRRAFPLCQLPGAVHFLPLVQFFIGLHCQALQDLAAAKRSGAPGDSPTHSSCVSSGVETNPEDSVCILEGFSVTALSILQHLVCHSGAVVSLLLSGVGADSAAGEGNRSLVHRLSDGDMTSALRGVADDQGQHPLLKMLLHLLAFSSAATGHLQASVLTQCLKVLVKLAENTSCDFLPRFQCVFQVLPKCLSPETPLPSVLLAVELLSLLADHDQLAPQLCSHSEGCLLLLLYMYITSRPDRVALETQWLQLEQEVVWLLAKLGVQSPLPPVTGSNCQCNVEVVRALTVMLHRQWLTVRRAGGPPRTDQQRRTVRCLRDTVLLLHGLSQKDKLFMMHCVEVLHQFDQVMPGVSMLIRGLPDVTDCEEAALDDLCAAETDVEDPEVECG

## COC(=O)N1CCC(c2ncnc3c2CN(c2cc(Cl)nc4[nH]ccc24)[C@H](C)C3)CC1 [Example 25, methyl 4-[(7R)-6-{6-chloro-1H-pyrrolo[2,3-b]pyridin-4-yl}-7-methyl-5H,6H,7H,8H-pyrido [4,3-d]pyrimidin-4-yl]piperidine-1-carboxylate]
[1]
  IC50: 28 nM
ATR/ATRIP complex; [2]
  IC50: 899 nM

## C[C@@H]1Cc2ncnc(N3C[C@H]4CC[C@@H](C3)C4NC(=O)CC(F)(F)F)c2CN1c1cc(Cl)nc2[nH]ccc12 (stereo partly drawn) [Example 26, N-{3-[(7R)-6-{6-chloro-1H-pyrrolo[2,3-b]pyridin-4-yl}-7-methyl-5H,6H,7H,8H-pyrido[4,3-d]pyrimidin-4-yl]-3-aza-bicyclo[3.2.1]octan-8-yl}-3,3-trifluoro-propanamide]
[1]
  IC50: 88 nM
ATR/ATRIP complex; [3]
  IC50: 1000 to 10000 nM

## CCC(=O)NC1[C@@H]2CC[C@H]1CN(c1ncnc3c1CN(c1cc(Cl)nc4[nH]ccc14)[C@H](C)C3)C2 (stereo partly drawn) [Example 27, N-[3-[(7R)-6-{6-chloro-1H-pyrrolo[2,3-b]pyridin-4-yl}-7-methyl-5H,6H,7H,8H-pyrido[4,3-d]pyrimidin-4-yl]-3-aza-bicyclo[3.2.1]octan-8-yl}propanamide]
[1]
  IC50: 38 nM
ATR/ATRIP complex; [3]
  IC50: 1000 to 10000 nM

## COC(=O)NC1[C@@H]2CC[C@H]1CN(c1ncnc3c1CN(c1cc(Cl)nc4[nH]ccc14)[C@H](C)C3)C2 (stereo partly drawn) [Example 28, methyl N-{3-[(7R)-6-{6-chloro-1H-pyrrolo[2,3-b]-pyridin-4-yl}-7-methyl-5H,6H,7H,8H-pyrido[4,3-d]pyrimidin-4-yl]-3-aza-bicyclo[3.2.1]octan-8-yl}carbamate]
[1]
  IC50: 46 nM
ATR/ATRIP complex; [3]
  IC50: 1000 to 10000 nM

## C[C@@H]1Cc2ncnc(N3CCC(NS(C)(=O)=O)CC3)c2CN1c1cc(Cl)nc2[nH]ccc12 [Example 29, N-{1-[(7R)-6-{6-chloro-1H-pyrrolo[2,3-b]pyridin-4-yl}-7-methyl-5H,6H,7H,8H-pyrido [4,3-d]pyrimidin-4-yl]piperidin-4-yl}methanesulfonamide]
[1]
  IC50: 13 nM
ATR/ATRIP complex; [2]
  IC50: 120 nM

## C[C@@H]1Cc2ncnc(N3CCC(C(C)(C)O)CC3)c2CN1c1cc(Cl)nc2[nH]ccc12 [Example 30, 2-{1-[(7R)-6-{6-chloro-1H-pyrrolo[2,3-b]pyridin-4-yl}-7-methyl-5H,6H,7H,8H-pyrido[4,3-d]pyrimidin-4-yl]-piperidin-4-yl}propan-2-ol]
[1]
  IC50: 12 nM
ATR/ATRIP complex; [2]
  IC50: 329 nM

## C[C@@H]1Cc2ncnc(N3CCC4(CC3)CNC(=O)O4)c2CN1c1cc(Cl)nc2[nH]ccc12 [Example 31, 8-[(7R)-6-{6-chloro-1H-pyrrolo[2,3-b]pyridin-4-yl}-7-methyl-5H,6H,7H,8H-pyrido[4,3-d]pyrimidin-4-yl]-1-oxa-3,8-diazaspiro[4.5]decan-2-one]
[1]
  IC50: 72 nM
ATR/ATRIP complex; [2]
  IC50: 434 nM

## C[C@@H]1Cc2ncnc(N3CC(S(C)(=O)=O)C3)c2CN1c1cc(Cl)nc2[nH]ccc12 [Example 32, 1-[(7R)-6-{6-chloro-1H-pyrrolo[2,3-b]pyridin-4-yl}-7-methyl-5H,6H,7H,8H-pyrido[4,3-d]pyrimidin-4-yl]-3-methanesulfonylazetidine]
[1]
  IC50: 21 nM
ATR/ATRIP complex; [2]
  IC50: 223 nM

## C[C@@H]1Cc2ncnc(N3CC(C(C)(C)O)C3)c2CN1c1cc(Cl)nc2[nH]ccc12 [Example 33, 2-{1-[(7R)-6-{6-chloro-1H-pyrrolo[2,3-b]pyridin-4-yl}-7-methyl-5H,6H,7H,8H-pyrido[4,3-d]pyrimidin-4-yl]azetidin-3-yl}propan-2-ol]
[1]
  IC50: 15 nM
ATR/ATRIP complex; [2]
  IC50: 183 nM

## CNC(=O)C1CN(c2ncnc3c2CN(c2cc(Cl)nc4[nH]ccc24)[C@H](C)C3)C1 [Example 34, 1-[(7R)-6-{6-chloro-1H-pyrrolo[2,3-b]pyridin-4-yl}-7-methyl-5H,6H,7H,8H-pyrido[4,3-d]pyrimidin-4-yl]-N-methylazetidine-3-carboxamide]
[1]
  IC50: 87 nM
ATR/ATRIP complex; [2]
  IC50: 429 nM

## C[C@@H]1Cc2ncnc(N3CCC34CN(S(C)(=O)=O)C4)c2CN1c1cc(Cl)nc2[nH]ccc12 [Example 37, (R)-6-(6-chloro-1H-pyrrolo[2,3-b]pyridin-4-yl)-7-methyl-4-(6-(methylsulfonyl)-1,6-diazaspiro[3.3]heptan-1-yl)-5,6,7,8-tetrahydropyrido[4,3-d] pyrimidine]
[1]
  IC50: 56 nM
ATR/ATRIP complex; [3]
  IC50: 1000 to 10000 nM

## C[C@@H]1Cc2ncnc(N3C[C@H]4CC[C@@H](C3)[C@@H]4NS(C)(=O)=O)c2CN1c1cc(Cl)nc2[nH]ccc12 [Example 38, N-((1R,5S)-(8-anti)-3-((R)-6-(6-chloro-1H-pyrrolo[2,3-b]pyridin-4-yl)-7-methyl-5,6,7,8-tetrahydropyrido[4,3-d]pyrimidin-4-yl)-3-azabicyclo[3.2.1]octan-8-yl)methanesulfonamide]
[1]
  IC50: 83 nM
ATR/ATRIP complex; [2]
  IC50: 929 nM

## C[C@@H]1Cc2ncnc(C3CCC(NS(C)(=O)=O)CC3)c2CN1c1cc(Cl)nc2[nH]ccc12 (stereo partly drawn) [Example 40, (R)-N-(4-(6-(6-chloro-1H-pyrrolo[2,3-b]pyridin-4-yl)-7-methyl-5,6,7,8-tetrahydropyrido[4,3-d]pyrimidin-4-yl)cyclohexyl)methane-sulfonamide]
[1]
  IC50: 24 nM
ATR/ATRIP complex; [2]
  IC50: 899 nM

## C[C@@H]1Cc2ncnc(N3CCC(S(C)(=O)=O)C3)c2CN1c1cc(Cl)nc2[nH]ccc12 (stereo partly drawn) [Example 41, (7R)-6-(6-chloro-1H-pyrrolo[2,3-b]pyridin-4-yl)-7-methyl-4-(3-(methylsulfonyl)pyrrolidin-1-yl)-5,6,7,8-tetrahydropyrido[4,3-d]pyrimidine]
[1]
  IC50: 36 nM
ATR/ATRIP complex; [2]
  IC50: 472 nM

## C[C@@H]1Cc2ncnc(C3CCN(S(C)(=O)=O)CC3)c2CN1c1ccnc2[nH]ncc12 [Example 42, (R)-7-methyl-4-(1-(methylsulfonyl)piperidin-4-yl)-6-(1H-pyrazolo[3,4-b]pyridin-4-yl)-5,6,7,8-tetrahydropyrido[4,3-d] pyrimidine]
[1]
  IC50: 3010 nM
ATR/ATRIP complex; [3]
  IC50: 1000 to 10000 nM
